This note sets out measurements from patent publication US20040106545A1, “Compounds and methods for modulating cell adhesion” (priority 1996, published 2004).

Test [1] deals with Madin Darby canine kidney (MDCK) cells. Format: cell-based. The note with it: for EC50, decrease of electrical resistance across MDCK cell monolayer: 18 hours. In short, it runs like this:
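MDCK monolayers, grown in DMEM with 5% FCS from 300,000 cells per insert, exposed to modulating agent in medium (e.g., 0.5 mg/ml final for 24 hours). Transepithelial electrical resistance measured as an index of tight junction formation.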

A further test has as its target T1, N-cadherin (Gallus gallus, UniProt P10288).
T1 construct: expressed in transfected cells; host or cells: 3T3 fibroblasts (monolayer)
T1 sequence (P10288 165-912): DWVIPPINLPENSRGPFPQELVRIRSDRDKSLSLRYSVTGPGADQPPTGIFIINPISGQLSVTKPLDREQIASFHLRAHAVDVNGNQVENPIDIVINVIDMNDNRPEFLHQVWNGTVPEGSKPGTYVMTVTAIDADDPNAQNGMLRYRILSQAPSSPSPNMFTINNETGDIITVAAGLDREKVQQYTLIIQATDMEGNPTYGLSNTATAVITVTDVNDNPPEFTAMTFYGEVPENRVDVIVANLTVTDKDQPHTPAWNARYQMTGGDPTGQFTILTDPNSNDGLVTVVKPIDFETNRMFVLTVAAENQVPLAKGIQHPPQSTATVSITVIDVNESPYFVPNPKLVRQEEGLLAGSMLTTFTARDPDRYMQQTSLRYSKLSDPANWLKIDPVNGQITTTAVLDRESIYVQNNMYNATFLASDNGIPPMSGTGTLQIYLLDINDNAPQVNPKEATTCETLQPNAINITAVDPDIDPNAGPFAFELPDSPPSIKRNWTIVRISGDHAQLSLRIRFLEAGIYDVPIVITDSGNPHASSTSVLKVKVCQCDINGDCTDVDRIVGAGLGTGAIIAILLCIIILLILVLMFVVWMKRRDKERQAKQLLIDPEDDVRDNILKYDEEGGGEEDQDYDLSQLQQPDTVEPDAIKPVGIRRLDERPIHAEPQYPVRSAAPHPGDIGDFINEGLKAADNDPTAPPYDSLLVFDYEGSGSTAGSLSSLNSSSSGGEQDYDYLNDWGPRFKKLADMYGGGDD
Put plainly: Neurite outgrowth of mouse cerebellar neurons on N-cadherin expressing 3T3 monolayers (Example 2). Format: cell-based. From the text: Within a representative neurite outgrowth assay, neurons may be cultured on a monolayer of cells (e.g., 3T3) that express N-cadherin. […] For example, neurons may be cultured on monolayers of 3T3 cells transfected with cDNA encoding N-cadherin essentially as described by Doherty and Walsh, Curr. Op. Neurobiol. 4:49-55, 1994; Williams et al., Neuron 13:583-594, 1994; Hall et al., Cell Adhesion and Commun. 3:441-450, 1996; Doherty and Walsh, Mol. Cell. Neurosci. 8:99-111, 1994; and Safell et al., Neuron 18:231-242, 1997. Briefly, monolayers of control 3T3 fibroblasts and 3T3 fibroblasts that express N-cadherin may be established by overnight culture of 80,000 cells in individual wells of an 8-chamber well tissue culture slide. 3000 cerebellar neurons isolated from post-natal day 3 mouse brains may be cultured for 18 hours on the various monolayers in control media (SATO/2% FCS), or media supplemented with various concentrations of the modulating agent or control peptide. The cultures may then be fixed and stained for GAP43 which specifically binds to the neurons and their neurites. The length of the longest neurite on each GAP43 positive neuron may be measured by computer assisted morphometry.
Neurons were cultured on monolayers of 3T3 cells transfected with cDNA encoding N-cadherin essentially as described by Doherty and Walsh, Curr. Op. Neurobiol. 4:49-55, 1994; Williams et al., Neuron 13:583-594, 1994; Hall et al., Cell Adhesion and Commun. 3:441-450, 1996; Doherty and Walsh, Mol. Cell. Neurosci. 8:99-111, 1994; Safell et al., Neuron 18:231-242, 1997. Briefly, monolayers of control 3T3 fibroblasts and 3T3 fibroblasts that express N-cadherin were established by overnight culture of 80,000 cells in individual wells of an 8-chamber well tissue culture slide. […] The length of the longest neurite on each GAP43 positive neuron was then measured by computer assisted morphometry.

Another test has as its system Melanoma ME115 cells. Put plainly: Disruption of melanoma cell adhesion, pan-cadherin staining. Format: cell-based, human. The following applies: 500 μg/mL, 48 hours. How it is done:
Melanoma ME115 cells (kindly provided by Meenhard Herlyn, Wistar Institute, Philadelphia, Pa.) were plated on glass coverslips and cultured for 24 hours in 50% keratinocyte growth medium (Clonetics, San Diego, Calif.) and 50% L15. Fresh medium containing the cyclic peptides (final concentration 500 μg/mL media) N—Ac-CHAVC-NH2 (SEQ ID NO:10) or N—Ac-CHGVC-NH2 (SEQ ID NO:11) was then added. Following 24 hours of culture in the presence of the peptides, the medium was removed and fresh medium containing the peptides was added. The cells were fixed 24 hours later with cold methanol and stored in phosphate buffered saline (PBS).
Coverslips were blocked for 1 hour in 3% ovalbumin/PBS and incubated for a further 1 hour in the presence of rabbit pan-cadherin antibody (Sigma Chemical Co., St. Louis, Mo.) diluted 1:500. Primary and secondary antibodies were diluted in PBS containing 6% normal goat serum. Following incubation in the primary antibody, coverslips were washed 3 times for 5 minutes each in PBS and incubated for 1 hour in goat anti-rabbit immunoglobulin G conjugated to fluorescein (Kiekegard and Perry, South San Francisco, Calif.) diluted 1:100. Following a further wash in PBS (3×5 minutes) coverslips were mounted in Vectashield (Vector Labs, Burlingame, Calif.) and viewed with a Zeiss infinity corrected microscope.

Entries after “also recorded” stand apart in the source; their conditions may differ. Positions of bridges follow the written chain, without caps; N, C: chain ends. Residues, ends and D or L forms follow the SMILES beside them.

As for `CC[C@H](C)[C@@H]1NC(=O)[C@H](CC(=O)O)NC(=O)[C@H](C(C)C)NC(=O)[C@H](C)NC(=O)[C@H](Cc2c[nH]cn2)NC(=O)[C@H](C)NC(=O)[C@@H](NC(C)=O)CSSC[C@@H](C(N)=O)NC1=O` (Ac-CAHAVDIC-NH2; disulfide 1-8), the “EC50, decrease of electrical resistance across MDCK cell monolayer” value in test [1] is “INACTIVE”.
As to `CC(=O)N[C@H]1CSSC[C@@H](C(N)=O)NC(=O)[C@H](CC(=O)O)NC(=O)[C@H](C(C)C)NC(=O)[C@H](C)NC(=O)[C@H](Cc2c[nH]cn2)NC(=O)[C@H](C)NC1=O` [N—Ac—CAHAVDC—NH2, N-Ac-Cys-Ala-His-Ala-Val-Asp-Cys-NH2] (Ac-CAHAVDC-NH2; disulfide 1-7), in test [1], the “effect on electrical resistance across MDCK cells (in words)” value is given as “complete abrogation of E-cadherin specific activity” and the “EC50, decrease of electrical resistance across MDCK cell monolayer” value is given as “INACTIVE”.
Regarding `CC(=O)N[C@H]1CSSC[C@@H](C(N)=O)NC(=O)[C@H](C(C)C)NC(=O)CNC(=O)[C@H](Cc2c[nH]cn2)NC1=O` [N—Ac—CHGVC—NH2, reference compound], at N-cadherin (500 μg/mL, 18 hours), the “inhibition of neurite outgrowth on 3T3 cells expressing N-cadherin” value is recorded as “had no effect on this process”. In addition, in the test with Melanoma ME115 cells, the “cadherin staining of ME115 cells” value is “displayed cadherin staining all over the cell membrane”.
With `CC(=O)N[C@H]1CSSC[C@@H](C(N)=O)NC(=O)[C@H](C(C)C)NC(=O)[C@H](C)NC(=O)[C@H](Cc2c[nH]cn2)NC1=O` [N—Ac—CHAVC—NH2, N-Ac-Cys-His-Ala-Val-Cys-NH2], the “inhibition of neurite outgrowth on 3T3 cells expressing N-cadherin” value against N-cadherin (50 μg/mL) is recorded as “significantly inhibited neurite outgrowth”; against N-cadherin (500 μg/mL, 18 hours), “completely inhibited neurite outgrowth”. Moreover, the “cadherin staining of ME115 cells” value in the test on Melanoma ME115 cells is “cadherin is localized in intracellular vesicles; also recorded: absence of cell membrane staining and the appearance of bright intracellular vesicular staining”. Besides, the melanoma cell adhesion entry with Melanoma ME115 cells is “disrupts melanoma cell adhesion”.
